Experimental data published in patent publication US6977262B2, “Dihydropyrazolopyridine compounds and pharmaceutical use thereof” (Mitsubishi Pharma Corporation, priority 2001, dated 2005).

| melting point | Structure (SMILES) |
| --- | --- |
| 200 °C | CCCCC1=C(C#N)C(c2cccc3nonc23)c2c[nH]nc2N1 (centres unmarked) [Example 177, 4-(2,1,3-Benzoxadiazol-4-yl)-6-butyl-5-cyano-4,7-dihydro-2H-pyrazolo[3,4-b]pyridine] |
| 198 to 200 °C | CCCC1=C(C(=O)OCC)C(c2cccc(C)c2Cl)c2c[nH]nc2N1 (centres unmarked) [Example 178, Ethyl 4-(2-chloro-3-methylphenyl)-4,7-dihydro-6-propyl-2H-pyrazolo[3,4-b]pyridine-5-carboxylate] |
| 213 to 215 °C | CCCC1=C(C(=O)OCC)C(c2cccc(C#N)c2Cl)c2c[nH]nc2N1 (centres unmarked) [Example 180, Ethyl 4-(2-chloro-3-cyanophenyl)-4,7-dihydro-6-propyl-2H-pyrazolo[3,4-b]pyridine-5-carboxylate] |
| 180 to 183 °C (dec.) | CCCC1=C(C(=O)OCC)C(c2cccc(Br)c2Br)c2c[nH]nc2N1 (centres unmarked) [Example 181, Ethyl 4-(2,3-dibromophenyl)-4,7-dihydro-6-propyl-2H-pyrazolo[3,4-b]pyridine-5-carboxylate] |
| 210 to 212 °C (dec.) | CCCC1=C(C(=O)OCC)C(c2cccc(C#N)c2Br)c2c[nH]nc2N1 (centres unmarked) [Example 183, Ethyl 4-(2-bromo-3-cyanophenyl)-4,7-dihydro-6-propyl-2H-pyrazolo[3,4-b]pyridine-5-carboxylate] |
| > 250 °C | CCCC1=C(C#N)C(c2cccc(C#N)c2Cl)c2c[nH]nc2N1 (centres unmarked) [Example 184, 4-(2-Chloro-3-cyanophenyl)-5-cyano-4,7-dihydro-6-propyl-2H-pyrazolo[3,4-b]pyridine] |
| 234 to 235 °C | CCCC1=C(C#N)C(c2cccc([N+](=O)[O-])c2Cl)c2c[nH]nc2N1 (centres unmarked) [Example 185, 4-(2-Chloro-3-nitrophenyl)-5-cyano-4,7-dihydro-6-propyl-2H-pyrazolo[3,4-b]pyridine] |
| 250 to 255 °C (dec.) | CCCC1=C(C#N)C(c2cccc([N+](=O)[O-])c2Br)c2c[nH]nc2N1 (centres unmarked) [Example 189, 4-(2-Bromo-3-nitrophenyl)-5-cyano-4,7-dihydro-6-propyl-2H-pyrazolo[3,4-b]pyridine] |
| 220 to 222 °C | CCCC1=C(C(=O)OCC)C(c2cccc(C)c2OC)c2c[nH]nc2N1 (centres unmarked) [Example 190, Ethyl 4,7-dihydro-4-(2-methoxy-3-methylphenyl)-6-propyl-2H-pyrazolo[3,4-b]pyridine-5-carboxylate] |
| 220 to 222 °C | CCCC1=C(C(=O)OCC)C(c2cccc(C#N)c2OC)c2c[nH]nc2N1 (centres unmarked) [Example 191, Ethyl 4-(3-cyano-2-methoxyphenyl)-4,7-dihydro-6-propyl-2H-pyrazolo[3,4-b]pyridine-5-carboxylate] |
| 228 to 230 °C (dec.) | CCC1=C(C#N)C(c2ccccc2[N+](=O)[O-])c2c[nH]nc2N1 (centres unmarked) [Example 192, 5-Cyano-6-ethyl-4,7-dihydro-4-(2-nitrophenyl)-2H-pyrazolo[3,4-b]pyridine] |
| > 300 °C | CCC1=C(C#N)C(c2cccc(Cl)c2Cl)c2c[nH]nc2N1 (centres unmarked) [Example 193, 5-Cyano-4-(2,3-dichlorophenyl)-6-ethyl-4,7-dihydro-2H-pyrazolo[3,4-b]pyridine] |
| 230 to 232 °C | CCC1=C(C#N)C(c2ccccc2OC)c2c[nH]nc2N1 (centres unmarked) [Example 194, 5-Cyano-6-ethyl-4,7-dihydro-4-(2-methoxyphenyl)-2H-pyrazolo[3,4-b]pyridine] |
| > 300 °C | CCC1=C(C#N)C(c2cccc(C#N)c2Cl)c2c[nH]nc2N1 (centres unmarked) [Example 195, 4-(2-Chloro-3-cyanophenyl)-5-cyano-6-ethyl-4,7-dihydro-2H-pyrazolo[3,4-b]pyridine] |
| > 300 °C | CCC1=C(C#N)C(c2ccccc2Cl)c2c[nH]nc2N1 (centres unmarked) [Example 197, 4-(2-Chlorophenyl)-5-cyano-6-ethyl-4,7-dihydro-2H-pyrazolo[3,4-b]pyridine] |
| > 300 °C | CCC1=C(C#N)C(c2cccc(C#N)c2Br)c2c[nH]nc2N1 (centres unmarked) [Example 198, 4-(2-Bromo-3-cyanophenyl)-5-cyano-6-ethyl-4,7-dihydro-2H-pyrazolo[3,4-b]pyridine] |
| 250 to 253 °C (dec.) | CCC1=C(C#N)C(c2ccccc2Br)c2c[nH]nc2N1 (centres unmarked) [Example 199, 4-(2-Bromophenyl)-5-cyano-6-ethyl-4,7-dihydro-2H-pyrazolo[3,4-b]pyridine] |
| > 250 °C | CCCC1=C(C#N)C(c2cccc(C(F)(F)F)c2Cl)c2c[nH]nc2N1 (centres unmarked) [Example 201, 4-(2-Chloro-3-trifluoromethylphenyl)-5-cyano-4,7-dihydro-6-propyl-2H-pyrazolo[3,4-b]pyridine] |

| melting point | Structure (SMILES) |
| --- | --- |
| > 250 °C | N#CC1=C(c2ccccc2)Nc2n[nH]cc2C1c1cccc(C(F)(F)F)c1Cl (centres unmarked) [Example 202, 4-(2-Chloro-3-trifluoromethylphenyl)-5-cyano-4,7-dihydro-6-phenyl-2H-pyrazolo[3,4-b]pyridine] |
| > 250 °C | CC(C)C1=C(C#N)C(c2ccccc2Cl)c2c[nH]nc2N1 (centres unmarked) [Example 203, 4-(2-Chlorophenyl)-5-cyano-4,7-dihydro-6-isopropyl-2H-pyrazolo[3,4-b]pyridine] |
| 141 to 143 °C | CCCC1=C(C(=O)OCC)C(c2ccccc2Cl)c2cn(C(=O)OC)nc2N1 (centres unmarked) [Example 207, Ethyl 4-(2-chlorophenyl)-4,7-dihydro-2-methoxycarbonyl-6-propyl-2H-pyrazolo[3,4-b]pyridine-5-carboxylate] |
| 80 °C | CCCC1=C(C(=O)OCC)C(c2ccccc2Cl)c2cnn(C(=O)OCc3ccccc3)c2N1 (centres unmarked) [Example 208, Ethyl 1-benzyloxycarbonyl-4-(2-chlorophenyl)-4,7-dihydro-6-propyl-1H-pyrazolo[3,4-b]pyridine-5-carboxylate] |
| 115 °C | CCCC1=C(C(=O)OCC)C(c2ccccc2Cl)c2cnn(C(=O)c3ccccc3)c2N1 (centres unmarked) [Example 210, Ethyl 1-benzoyl-4-(2-chlorophenyl)-4,7-dihydro-6-propyl-1H-pyrazolo[3,4-b]pyridine-5-carboxylate] |
| 119 to 121 °C | CCCC1=C(C(=O)OCC)C(c2ccccc2Cl)c2cn(C(=O)c3ccccc3)nc2N1 (centres unmarked) [Example 211, Ethyl 2-benzoyl-4-(2-chlorophenyl)-4,7-dihydro-6-propyl-2H-pyrazolo[3,4-b]pyridine-5-carboxylate] |
| 145 to 147 °C | CCCC1=C(C(=O)OCC)C(c2ccccc2Cl)c2cn(C(=O)Nc3ccccc3)nc2N1 (centres unmarked) [Example 215, Ethyl 4-(2-chlorophenyl)-4,7-dihydro-2-phenylcarbamoyl-6-propyl-2H-pyrazolo[3,4-b]pyridine-5-carboxylate] |
| 156 to 157 °C | CCCC1=C(C(=O)OCC)C(c2ccccc2Cl)c2cn(C(=O)Oc3ccccc3)nc2N1 (centres unmarked) [Example 218, Ethyl 4-(2-chlorophenyl)-4,7-dihydro-2-phenoxycarbonyl-6-propyl-2H-pyrazolo[3,4-b]pyridine-5-carboxylate] |
| 88 to 89 °C | CCCC1=C(C(=O)OCC)C(c2ccccc2Cl)c2cnn(C(=O)OCC)c2N1 (centres unmarked) [Example 219, Ethyl 4-(2-chlorophenyl)-1-ethoxycarbonyl-4,7-dihydro-6-propyl-1H-pyrazolo[3,4-b]pyridine-5-carboxylate] |
| 66 to 68 °C | CCCOC(=O)n1ncc2c1NC(CCC)=C(C(=O)OCC)C2c1ccccc1Cl (centres unmarked) [Example 221, Ethyl 4-(2-chlorophenyl)-4,7-dihydro-1-propoxycarbonyl-6-propyl-1H-pyrazolo[3,4-b]pyridine-5-carboxylate] |
| 59 °C | CCCOC(=O)n1cc2c(n1)NC(CCC)=C(C(=O)OCC)C2c1ccccc1Cl (centres unmarked) [Example 222, Ethyl 4-(2-chlorophenyl)-4,7-dihydro-2-propoxycarbonyl-6-propyl-2H-pyrazolo[3,4-b]pyridine-5-carboxylate] |
| 75 to 76 °C | CCCC1=C(C(=O)OCC)C(c2ccccc2Cl)c2cnn(C(C)=O)c2N1 (centres unmarked) [Example 224, Ethyl 1-acetyl-4-(2-chlorophenyl)-4,7-dihydro-6-propyl-1H-pyrazolo[3,4-b]pyridine-5-carboxylate] |
| 131 to 134 °C | CCCC1=C(C(=O)OCC)C(c2ccccc2Cl)c2cnn(C(=O)C=Cc3ccccc3)c2N1 (centres unmarked) [Example 228, Ethyl 4-(2-chlorophenyl)-1-cinnamoyl-4,7-dihydro-6-propyl-1H-pyrazolo[3,4-b]pyridine-5-carboxylate] |
| 164 to 165 °C | CCCC1=C(C(=O)OCC)C(c2ccccc2Cl)c2c(n[nH]c2C)N1 (centres unmarked) [Example 230, Ethyl 4-(2-chlorophenyl)-4,7-dihydro-3-methyl-6-propyl-2H-pyrazolo[3,4-b]pyridine-5-carboxylate] |
| 150 to 151 °C | CCCC1=C(C(=O)OCC)C(c2ccccc2Cl)c2cn(C)nc2N1 (centres unmarked) [Example 231, Ethyl 4-(2-chlorophenyl)-4,7-dihydro-2-methyl-6-propyl-2H-pyrazolo[3,4-b]pyridine-5-carboxylate] |
| 140 to 143 °C | CCCC1=C(C(=O)OCC)C(c2cccc(Cl)c2)c2c[nH]nc2N1 (centres unmarked) [Example 234, Ethyl 4-(3-chlorophenyl)-4,7-dihydro-6-propyl-2H-pyrazolo[3,4-b]pyridine-5-carboxylate] |
| 159 to 161 °C | CCCC1=C(C(=O)OCC)C(c2ccc(Cl)cc2)c2c[nH]nc2N1 (centres unmarked) [Example 235, Ethyl 4-(4-chlorophenyl)-4,7-dihydro-6-propyl-2H-pyrazolo[3,4-b]pyridine-5-carboxylate] |
| 219 to 220 °C | CCCC1=C(C(=O)OCC)C(c2[nH]cnc2C)c2c[nH]nc2N1 (centres unmarked) [Example 236, Ethyl 4,7-dihydro-4-(4-methyl-1H-imidazol-5-yl)-6-propyl-2H-pyrazolo[3,4-b]pyridine-5-carboxylate] |

| Structure (SMILES) | melting point |
| --- | --- |
| CCCC1=C(C(=O)OCC)C(c2ccccc2Cl)c2cnn(C(=O)OC(C)(C)C)c2N1 (centres unmarked) [Example 204, Ethyl 1-tert-butoxycarbonyl-4-(2-chlorophenyl)-4,7-dihydro-6-propyl-1H-pyrazolo[3,4-b]pyridine-5-carboxylate] | 112 to 116 °C |
| CCCC1=C(C(=O)OCC)C(c2ccccc2Cl)c2cn(C(=O)OC(C)(C)C)nc2N1 (centres unmarked) [Example 205, Ethyl 2-tert-butoxycarbonyl-4-(2-chlorophenyl)-4,7-dihydro-6-propyl-2H-pyrazolo[3,4-b]pyridine-5-carboxylate] | 144 to 147 °C |
